Reference: US5527940A, “Methanediphosphonate derivative, its manufacturing process and its pharmaceutical applications” (Toray Industries, Inc., priority 1991, dated 1996)

Legend:
[1] = system: osteoclasts (mouse bone cells), resorption pit formation; assay: Bone resorption pit formation by mouse bone cells (osteoclasts) on ivory, active type-vitamin D3 stimulation; type: cell-based, ICR mice; conditions: 10 nM active type-vitamin D3, 4 days
Description: The balance between bone formation and bone destruction is disturbed during osteoporosis, with bone destruction considered to be accelerated. Bone destruction is believed to occur due to an increase in the activation and number of osteoclasts. Experiments have been conducted wherein bone resorption was induced with active type-vitanium D3 stimulation using mouse bone cells dispersed on ivory for the experimental model. The bone resorption inhibitory action of compounds of the present invention was measured using this model.
After isolating the femur and tibia from 10-15 day old ICR mice, the bone specimens were prepared into thin sections in α-MEM medium containing 5% fetal bovine serum to prepare an bone cells suspension containing marrow cells and bone matrix. Large fragments of bone were removed with nylon mesh. Viable total cells were counted with trypan blue exclusion test while osteoclasts were stained with tartaric acid-resistantacid phosphatase stain to prepare a cell suspension containing osteoclasts in a proportion of roughly 0.05-0.1%. The ivory was cut into thin sections having a thickness of 150 μm using a low-speed rotary diamond cutter. The thin sections were then punched to a size that matched the size of the wells of a 96 well plate. These ivory fragments were placed in a 96 well plate followed by addition of the cell suspension prepared above so that each well contained 500 osteoclasts. 10 nM active type-vitamin D3 was added as stimulant simultaneous to addition of the drugs of the present invention at concentrations of 10 μM and 100 μM. After culturing the cells for 4 days at 37° C. in an environment of 10% CO2, the resorption pits that formed on the ivory slices were stained with hematoxylin and counted by observing microscopically. The resorption pit formation inhibition rate was then calculated using the formula indicated below. [formula]
The results were statistically processed using the Student's t-test, and those results that were significant at a level of significance of P<0.05 with respect to an active type-vatanium D3 stimulation control group were indicated with one asterisk (*), while those results that were significant at a level of significance of P<0.01 were indicated with two asterisks (**).

adjuvant arthritis model = assay: Adjuvant Arthritis Test; type: in vivo, 7 week old female Lewis rats; conditions: subcutaneous daily days 8-21
Description: Multiple arthritis resembling human chronic articular rheumatism occurs when tubercule bacillus adjuvant is injected into rats. The antiinflammatory, antirheumatic and bone metabolism improving action of compounds of the present invention were investigated according to the following procedure using this adjuvant arthritis model.
0.1 mg of dried non-viable Mycobacterium butyricum cells were suspended in 0.1 ml of liquid paraffin followed by injection into the skin of the left hind limb of 7 week old female Lewis rats. The compounds obtained in the Examples were dissolved in sterilized distilled water and administered subcutaneously every day for two weeks from the 8th to 21st days after injection of adjuvant. During that time, the volumes of the right and left hind limbs were measured and the swelling rate was calculated according to the following formula: [formula]
Moreover, the swelling inhibition rates were also determined according to the following formula, and those values are shown in Table 1. [formula]
Soft X-ray radiographs were taken of the left and right hind limbs of the animals following sacrifice on day 22. The degree of bone destruction at five locations in the left and right hind limbs was evaluated based on the soft X-ray radiographs scoring those results among 5 ranks. Moreover, the bone destruction inhibition rate was calculated using the following formula, and those values are shown in Table 1. [formula]
Those results that were significant at a level of significance of P<0.001 with respect to a control group administered only sterilized distilled water according to the Student's t-test and Chukey's multiple comparison method were indicated with three asterisks (***), those results that were significant at a level of significance of P<0.01 were indicated with two asterisks (**), and those significant at a level of significance of P<0.05 were indicated with one asterisk (*).
The swelling inhibition rates for Example 7 and Example 33 are the values for day 14 and day 21.

[2] = system: IL-1 production by J774-1 mouse macrophage cells; assay: Action on IL-1 Production by Strain J774-1 Mouse Macrophage Cells (LPS stimulated); type: cell-based; conditions: 100 μM compound, LPS 1 μg/ml, 24 hours, read-out: IL-1 Production Inhibition Rate with respect to Control Group
Description: It is also known that these cells produce IL-1 when stimulated with LPS. The inhibitory action on IL-1 production of compounds of the present invention was measured according to the following procedure using this cell line.
The J774-1 cells were cultured in RPMI-1640 medium containing 10% fetal bovine serum and 50 μM 2-mercaptoethanol followed by adjusting the number of cells to 2×10^5 cells/ml. 1 ml aliquots of this cell suspension were then placed in the wells of a 24 well plate and cultured for 30 minutes. Following culturing, LPS was added to a final concentration of 1 μg/ml. At the same time, compounds obtained in Examples were dissolved in sterilized distilled water and added at a concentration of 100 μM. […]
The samples obtained above were serially diluted by a factor of 2 in a 96 well multiplate at a capacity of 50 μl. […] The thymus cells were then cultured for 72 hours and IL-1 activity was determined from the growth rate of the cells. […] Using the absorbance of the pigment produced by this reduction at 570 nm as the index, the dilution factor of the sample when growth of thymus cells is induced by 50% was calculated in terms of the number of units of that sample by taking the case of induction of maximum growth of T cells by human gene recombinant IL-1 to be 100% growth, and growth in the case of not adding IL-1 to be 0%. […]

CSc1ccc(SC(P(=O)(O)O)P(=O)(O)O)cc1 [Example 2, (4-methylthiophenyl)thiomethanediphosphonic acid]
resorption pit formation Inhibition Rate with respect to Control Group ([1]; 10 μM compound): 79.9 ± 3.12%
resorption pit formation Inhibition Rate with respect to Control Group ([1]; 100 μM compound): 92.6 ± 1.08%
Bone Destruction Inhibition Rate with respect to control group, Day 22 (adjuvant arthritis model; Day 22, soft X-ray score of left and right hind limbs): 62.3%
Swelling Inhibition Rate with respect to Control Group, Day 16, Left (adjuvant arthritis model; left (adjuvant-injected) hind limb, Day 16): 96.0%
Swelling Inhibition Rate with respect to Control Group, Day 21, Left (adjuvant arthritis model; left (adjuvant-injected) hind limb, Day 21): 122.5%
Swelling Inhibition Rate with respect to Control Group, Day 16, Right (adjuvant arthritis model; right hind limb, Day 16): 9.1%
Swelling Inhibition Rate with respect to Control Group, Day 21, Right (adjuvant arthritis model; right hind limb, Day 21): 30.6%
inhibition at 100 µM [2]: 51.4%
